Data from patent US3974140A, “Ureidoacetamido-penicillins” (Bayer Aktiengesellschaft, priority 1970, dated 1976).

Columns and labels:
Test in all cases: MIC, liquid medium test tube series dilution test
Staph. aureus 133 = format: cell-based, Staphylococcus aureus; conditions: Staph. aureus 133, 24 hours, 37°C
Procedure, shortened: (§1)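 In this in vitro test, growth inhibition is judged by absence of turbidity across a dilution series in complete nutrient broth. Readings are made after 24 hours at 37°C, with values given in units/ml.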

Staph. aureus 1777 E = format: cell-based, Staphylococcus aureus; conditions: 24 hours, 37°C
Procedure, shortened: as §1

Psdm. aerug. Walter = format: cell-based, Pseudomonas aerug.; conditions: 24 hours, 37°C
Procedure, shortened: as §1

Psdm. aerug. Bonn = format: cell-based, Pseudomonas aerug.; conditions: 24 hours, 37°C
Procedure, shortened: as §1

Proteus vulg. 3400 = format: cell-based, Proteus vulgaris; conditions: Proteus vulg. 3400, 24 hours, 37°C
Procedure, shortened: as §1

Proteus vulg. 1017 = format: cell-based, Proteus vulgaris; conditions: Proteus vulg. 1017, 24 hours, 37°C
Procedure, shortened: as §1

Klebsiella 63 = format: cell-based; conditions: Klebsiella 63, 24 hours, 37°C
Procedure, shortened: as §1

E. coli 183/58 = format: cell-based; conditions: E. coli 183/58, 24 hours, 37°C
Procedure, shortened: as §1

E. coli C 165 = format: cell-based; conditions: E. coli C 165, 24 hours, 37°C
Procedure, shortened: as §1

[1] = test system: Streptoc. faec. ATCC 9790; format: cell-based; conditions: Strep. faec. (Enterococcus) ATCC 9790, 24 hours, 37°C
Procedure, shortened: as §1

E. coli A 261 = format: cell-based; conditions: E. coli A 261, 24 hours, 37°C
Procedure, shortened: as §1

Klebsiella K 10 = format: cell-based; conditions: Klebsiella K 10, 24 hours, 37°C
Procedure, shortened: as §1

E. coli 14 = format: cell-based; conditions: E. coli 14, 24 hours, 37°C
Procedure, shortened: as §1

Row | SMILES | MIC (Staph. aureus 133) | MIC (Staph. aureus 1777 E) [units/ml] | MIC (Psdm. aerug. Walter) | MIC (Psdm. aerug. Bonn) | MIC (Proteus vulg. 3400) [units/ml] | MIC (Proteus vulg. 1017) [units/ml] | MIC (Klebsiella 63) [units/ml] | MIC (E. coli 183/58) | MIC (E. coli C 165) | MIC [1] [units/ml] | MIC (E. coli A 261) [units/ml] | MIC (Klebsiella K 10) [units/ml] | MIC (E. coli 14) | further results
1 | CSc1ccc(C(NC(=O)N2CCNC2=O)C(=O)N[C@@H]2C(=O)N3[C@@H]2SC(C)(C)[C@@H]3C(=O)O)cc1 (stereo partly drawn) [Example 55, Sodium α-[(imidazolidin-2-on-1-yl)-carbonylamino]-4-methylthiobenzylpenicillin] | < 0,78 units/ml | 200 | 25 units/ml | 12,5 units/ml | 100 | 100 | 100 | 12,5 units/ml | 25 units/ml | 50 | > 400 | 100 | 6,25 units/ml | –
2 | CC1(C)S[C@@H]2[C@H](NC(=O)[C@H](NC(=O)N3CCNC3=O)c3ccccc3)C(=O)N2[C@H]1C(=O)O [Example 51, Sodium D(-)-α-[(imidazolidin-2-on-1-yl)-carbonylamino]-benzylpenicillin] | < 0,78 units/ml | 400 | 12,5 units/ml | 12,5 units/ml | 25 | 25 | 50 | 12,5 units/ml | 12,5 units/ml | 25 | 400 | 100 | 3,12 units/ml | –
3 | CSc1ccc(C(NC(=O)N2CCNC2=O)C(=O)N[C@@H]2C(=O)N3[C@@H]2SC(C)(C)[C@@H]3C(=O)O)cc1 (stereo partly drawn) [Example 54, Sodium α-[(imidazolidin-2-on-1-yl)-carbonylamino]-4-methylthiobenzylpenicillin] | < 0,78 units/ml | 200 | 25 units/ml | 12,5 units/ml | 100 | 200 | 100 | 6,25 units/ml | 25 units/ml | 50 | > 400 | 100 | 6,25 units/ml | –
4 | CCN(C(=O)N[C@@H](C(=O)N[C@@H]1C(=O)N2[C@@H]1SC(C)(C)[C@@H]2C(=O)O)c1ccccc1)C(=O)c1ccccc1Cl [Example 138, Sodium D(-)-α-(3-o-chlorobenzoyl-3-ethyl-ureido)-benzylpenicillin] | < 0.8 units/ml | 12.5 | 100 units/ml | 25 units/ml | 100 | 25 | 50 | 12.5 units/ml | 25 units/ml | 50 | 200 | 50 | 6.25 units/ml | –
5 | CN(C(=O)N[C@@H](C(=O)N[C@@H]1C(=O)N2[C@@H]1SC(C)(C)[C@@H]2C(=O)O)c1ccccc1)C(=O)N1CCOCC1 [Example 125, Sodium D(-)-α-(3-[4-morpholinyl]-carbonyl-3-methyl-ureido)-benzylpenicillin] | 3.12 units/ml | 50 | 100 units/ml | 50 units/ml | 100 | 50 | 100 | 50 units/ml | 25 units/ml | 200 | > 400 | 200 | 3.12 units/ml | –
6 | COC(=O)N(C)C(=O)N[C@@H](C(=O)N[C@@H]1C(=O)N2[C@@H]1SC(C)(C)[C@@H]2C(=O)O)c1ccccc1 [Example 10 B] | – | 400 | – | – | – | – | – | – | – | – | > 400 | – | – | MIC (Staph. aureus 133; listed as 10 B): 1.6 units/ml; MIC (Staph. aureus 133; listed as (A) of Example 10): 1.56 units/ml; MIC (Psdm. aerug. Walter; listed as 10 B): 200 units/ml; MIC (Psdm. aerug. Walter; listed as (A) of Example 10): 50 units/ml; MIC (Psdm. aerug. Bonn; listed as 10 B): 200 units/ml; MIC (Psdm. aerug. Bonn; listed as (A) of Example 10): 50 units/ml; MIC (Proteus vulg. 3400; listed as 10 B): 200 units/ml; MIC (Proteus vulg. 1017; listed as 10 B): 200 units/ml; MIC (Klebsiella 63; listed as 10 B): 50 units/ml; MIC (Klebsiella 63; listed as (A) of Example 10): 200 units/ml; MIC (E. coli 183/58; listed as 10 B): 50 units/ml; MIC (E. coli 183/58; listed as (A) of Example 10): 50 units/ml; MIC (E. coli C 165; listed as 10 B): 50 units/ml; MIC ([1]; listed as 10 B): 100 units/ml; MIC (Klebsiella K 10; listed as 10 B): 50 units/ml; MIC (Klebsiella K 10; listed as (A) of Example 10): 200 units/ml; MIC (E. coli 14; listed as 10 B): 12.5 units/ml; MIC (E. coli 14; listed as (A) of Example 10): 12.5 units/ml
7 | CC1(C)S[C@@H]2[C@H](NC(=O)[C@H](NC(=O)N3CCNC3=S)c3ccccc3)C(=O)N2[C@H]1C(=O)O [Example 147 A] | < 0.8 units/ml | 100 | 200 units/ml | 25 units/ml | 50 | 50 | 100 | 100 units/ml | 50 units/ml | 50 | > 400 | 200 | 12.5 units/ml | MIC (Proteus vulg. 3400; listed as 147 A): 200 units/ml
8 | CCCCOC(=O)N(C)C(=O)N[C@@H](C(=O)N[C@@H]1C(=O)N2[C@@H]1SC(C)(C)[C@@H]2C(=O)O)c1ccccc1 [Example 98, Sodium D(-)-α-(3-n-butoxycarbonyl-3-methyl-ureido)-benzylpenicillin] | < 0.78 units/ml | 200 | 25 units/ml | 12.5 units/ml | 25 | 12.5 | 400 | 6.25 units/ml | 6.25 units/ml | 100 | > 400 | 400 | 3.12 units/ml | MIC (Staph. aureus 133; listed as (B) of Example 28): < 0.78 units/ml; MIC (Psdm. aerug. Walter; listed as (B) of Example 28): 25 units/ml; MIC (Psdm. aerug. Bonn; listed as (B) of Example 28): 12.5 units/ml; MIC (Proteus vulg. 3400; listed as (B) of Example 28): 25 units/ml; MIC (Proteus vulg. 1017; listed as (B) of Example 28): 12.5 units/ml; MIC (E. coli 183/58; listed as (B) of Example 28): 6.25 units/ml; MIC (E. coli C 165; listed as (B) of Example 28): 6.25 units/ml; MIC (E. coli 14; listed as (B) of Example 28): 3.12 units/ml
9 | CC(=O)N(C)C(=O)NC(C(=O)N[C@@H]1C(=O)N2[C@@H]1SC(C)(C)[C@@H]2C(=O)O)c1ccc(Cl)cc1 (stereo partly drawn) [Example 121, Sodium R,S-α-(3-acetyl-3-methyl-ureido)-4-chlorobenzylpenicillin] | < 0.8 units/ml | 100 | 100 units/ml | 100 units/ml | 200 | 100 | 100 | 100 units/ml | 50 units/ml | 100 | > 400 | 25 | 6 units/ml | –
10 | CC1(C)S[C@@H]2[C@H](NC(=O)C(NC(=O)N3CCNC3=O)c3ccc(Cl)cc3)C(=O)N2[C@H]1C(=O)O (stereo partly drawn) [Example 47, Sodium α-[(imidazolidin-2-on-1-yl)-carbonylamino]-p-chloro benzylpenicillin] | < 0,78 units/ml | 200 | 12,5 units/ml | 12,5 units/ml | 100 | 50 | 50 | 6,25 units/ml | 25 units/ml | 50 | > 400 | 100 | 3,12 units/ml | –
